Source: article PMC6469618 (Environmental Science and Pollution Research International, 2019)
Several values for one entry are separate records, joined by “and”; a condition that tells them apart may be missing. Identical values can stand only once.

Assays:
water louse = details: naturalistic pond experiment; ref Lagesson et al. 2016; cited from earlier work
[1] = Study 1: static water only, stability of methylphenidate and breakdown to ritalinic acid; details: for Water concentration, measured end: final sampling day; for Water concentration, measured end / Water concentration, measured start: nominal 1870 ng/L methylphenidate, Ntanks = 1; for Water concentration, measured start: immediately after dosing
Method: A total of 1870 ng/L (nominal concentration) of methylphenidate (1 mL of the stock solution) was added to a glass aquarium filled with 20 L of ground water. The tank was aerated and kept at 20 °C (ambient room temperature). Water was sampled at 0 min (immediately after dosing), 5 min, 15 min, 45 min, 90 min, 4 h, 10 h, 24 h, 2 days, 3 days, 4 days, 5 days, 7 days, and 12 days. This exposure was conducted in a windowless room with a light-dark cycle of 13L:11D.
(§1) Fifty microlitres of methylphenidate-D9 (500 ng/L) was added to 10-ml aliquots of the aqueous samples, filtered (0.45 μm, Filtropur S, Sarstedt, N~umbrecht, Germany), and acidified with 10 μL formic acid (0.1% v/v, Merck KGaA, Darmstadt, Germany) to a pH of 2.7.
(§2) All of the samples were injected to an EQuan MAX Plus LC-Quantiva triple quadrupole MS/MS (Thermo Scientific, San Jose, USA). A 10-μL injection volume was used for stickleback/louse extracts and the calibration curve. For the aqueous samples, and the corresponding calibration curve, a 1-mL injection volume was used and preconcentrated the analytes on an online-connected Oasis HLB column (2.1 × 20 mm, 15 μm Waters, Milford, USA) using column switching (70 s transfer time and 180 s elution time). Milli-Q ultra-pure water (Millipore) and methanol (Lichrosolv, Hypergrade, Merck) were used as mobile phases (both containing 0.1% formic acid (Suprapur, Merck KGaA), v/v) together with Hypersil GOLD columns (Thermo Scientific) as stationary phases: guard (20 × 2.1 mm, 3 μm) and analytical (50 × 2.1 mm, 3 μm). The flow rate was kept at 350 μL/min, and we used two linear gradients. The gradient for the stickleback/louse extracts were as follows: 0–2 min, methanol 2%; 2–4 min, methanol 2–100%; 4–6 min, methanol 100%; and 6.01–7.5 min, methanol 2%. For the aqueous samples, the gradient was 0–2 min, methanol 2%; 2–4.75 min, methanol 2–100%; 4.75–7 min, methanol 100%; and 7.01–9 min, methanol 2%.
(§3) Positive polarity and a heated electrospray at 338 °C, an ion transfer tube temperature at 350 °C, and a spray voltage at 3.5 kV were used. […] See supplementary materials for QA/QC data.
(§4) All analyses were conducted in R (version: 3.5.0; R Core Team [2018]). […] Welch’s two-sample t tests were used to analyse whether methylphenidate degradation in the water column was impacted by temperature treatment. […] Degradation/formation rate, kd, is the slope given by a linear regression analysis. […] Relative tissue uptake was calculated at each sampling point.

[2] = Study 2: static water + biota, concentrations in the water column; details: for Formation time of ritalinic acid in water / Water concentration, measured end / Water concentration, measured start / half-life at 187 ng/L: static + biota; for Water concentration, measured end: final sampling day; for Water concentration, measured end / Water concentration, measured start: nominal 187 ng/L methylphenidate, mean ± s.d.; for Water concentration, measured start: immediately after dosing, Ntanks = 3; for half-life at 187 ng/L: aquarium water with biota (stickleback or water louse), pH 7, Half-life of methylphenidate in water
Method: Stickleback and water louse were exposed to 187 ng/L (nominal concentration) methylphenidate at two temperature treatments: 10 °C (in a climate chamber) and 20 °C (ambient room temperature). Both exposures were maintained at the same light cycle used in study 1. Organisms were exposed under static conditions using three replicate glass aquaria filled with 20 L water. The aquaria were equipped with an airstone and two ceramic clay pots for shelter in each temperature treatment. Fish were exposed in two tanks, while water louse were exposed separately in the remaining tank. Water from each tank was sampled at 0 min (immediately after dosing), 15 min, 30 min, 60 min, 4 h, 8 h, 24 h, 3 days, 5 days, 7 days, 9 days, 10 days, 11 days, 12 days, and 13 days. Three to six water louse and three to six fish were sampled at each of the following time points: 60 min, 4 h, 8 h, 24 h, 3 days, 5 days, 7 days, 9 days, 10 days, 11 days, 12 days, and 13 days. Fish were euthanized via cerebral concussion and spinal severance. Water quality measures of pH (Merck pH Universal Indicator Strips), dissolved oxygen, and temperature (YSI Pro DO Series) were verified in the exposure tanks on the final days of sampling.
as §1, §2, §3, §4

[3] = tested on: guppies (Poecilia reticulata); design: method as in De Serrano et al. 2016; details: adult guppies exposed to 250 ng/L; ref De Serrano et al. 2016; cited from earlier work
humans = details: standard dose (18 mg); ref Faraj et al. 1974; Concerta Prescribing Information 2013; cited from earlier work
human = details: oral administration, ref Gualtieri et al. 1982, Doerge et al. 2000; cited from earlier work
in vivo [4] = details: water louse (Asellus aquaticus), 187 ng/L
Description: (§5) Nine-spine stickleback were collected using umbrella traps from ponds in Röbäck, Sweden, in July 2017. Fish were housed in a large, aerated, ground water flow-through tank (1500 L) until the start of the experiment. Fish were fed frozen chironomid larvae until satiation once daily. Water louse were collected using sweep nets from Djupsundsbäcken near Holmsund, Sweden, in January 2018. Water louse were kept in aerated containers with detritus (predominately alder leaf litter) until the start of the experiment.
(§6) Stickleback and water louse were exposed to 187 ng/L (nominal concentration) methylphenidate at two temperature treatments: 10 °C (in a climate chamber) and 20 °C (ambient room temperature). Both exposures were maintained at the same light cycle used in study 1. Organisms were exposed under static conditions using three replicate glass aquaria filled with 20 L water. The aquaria were equipped with an airstone and two ceramic clay pots for shelter in each temperature treatment. Fish were exposed in two tanks, while water louse were exposed separately in the remaining tank. Water from each tank was sampled at 0 min (immediately after dosing), 15 min, 30 min, 60 min, 4 h, 8 h, 24 h, 3 days, 5 days, 7 days, 9 days, 10 days, 11 days, 12 days, and 13 days. Three to six water louse and three to six fish were sampled at each of the following time points: 60 min, 4 h, 8 h, 24 h, 3 days, 5 days, 7 days, 9 days, 10 days, 11 days, 12 days, and 13 days. Fish were euthanized via cerebral concussion and spinal severance. Water quality measures of pH (Merck pH Universal Indicator Strips), dissolved oxygen, and temperature (YSI Pro DO Series) were verified in the exposure tanks on the final days of sampling. For the low (10 °C) and high (20 °C) temperature rooms, respectively, water temperature was (mean ± s.d.) 10.03 ± 0.32 °C and 17.07 ± 0.21 °C; dissolved oxygen was 14.40 ± 0.27 mg/L and 12.30 ± 0.30 mg/L; and there were no changes in pH (7 ± 0, for both temperatures).
(§7) Immediately after sampling, all water and organisms sampled were frozen at − 20 °C until further processing. Muscle tissue (mean ± s.d. 0.09 ± 0.02 g; range 0.02–0.13 g) was dissected from each stickleback by taking a section of the dorsal axial muscle. Water louse collected from each temperature treatment (10 °C and 20 °C) on each sampling day were pooled due to low sample weight before extracting whole-body tissue (0.05 ± 0.01 g; range 0.03–0.07 g). However, when enough tissue was available, multiple water louse samples were analysed. To each sample, 5 ng (50 μL) of the internal standard methylphenidate-D9 (Cerilliant, USA; in methanol, HPLC-grade, Fisher Chemical, Loughborough, UK) was added. For both stickleback and water louse, tissues were extracted using 1.5 ml acetonitrile (HPLC-grade, Fisher Chemical, Loughborough, UK) repeated twice (based on the method used by Brodin et al. [2013]; McCallum et al. [2017], [2018]). The samples were homogenized and extracted for 4 min at 42,000 oscillations per minute (Mini Beadbeater, Biospec. Bartlesville, USA) with zirconium beads and then centrifuged the samples at 17,500 g for 10 min (Beckman Coulter Microfuge 22R Centrifuge). This protocol was used for both eluent mixtures, and the supernatants were combined. The combined supernatants were evaporated to 20 μl and the sample was reconstituted in 100 μl methanol (HPLC-grade, Fisher Chemical, Loughborough, UK).

[5] = tested on: water louse (Asellus aquaticus); test: Study 2: uptake in whole-body tissue of water louse; details: for Start relative tissue concentration (Cb/Cw): 60 min after dosing; for End relative tissue concentration (Cb/Cw): final sampling day
Description: as §5, §6, §7

in vivo [6] = details: nine-spine stickleback (Pungitius pungitius), 187 ng/L
Description: as §5, §6
(§8) Immediately after sampling, all water and organisms sampled were frozen at − 20 °C until further processing. Muscle tissue (mean ± s.d. 0.09 ± 0.02 g; range 0.02–0.13 g) was dissected from each stickleback by taking a section of the dorsal axial muscle. Water louse collected from each temperature treatment (10 °C and 20 °C) on each sampling day were pooled due to low sample weight before extracting whole-body tissue (0.05 ± 0.01 g; range 0.03–0.07 g). However, when enough tissue was available, multiple water louse samples were analysed. To each sample, 5 ng (50 μL) of the internal standard methylphenidate-D9 (Cerilliant, USA; in methanol, HPLC-grade, Fisher Chemical, Loughborough, UK) was added. For both stickleback and water louse, tissues were extracted using 1.5 ml acetonitrile (HPLC-grade, Fisher Chemical, Loughborough, UK) repeated twice (based on the method used by Brodin et al. [2013]; McCallum et al. [2017], [2018]). The samples were homogenized and extracted for 4 min at 42,000 oscillations per minute (Mini Beadbeater, Biospec. Bartlesville, USA) with zirconium beads and then centrifuged the samples at 17,500 g for 10 min (Beckman Coulter Microfuge 22R Centrifuge). This protocol was used for both eluent mixtures, and the supernatants were combined. The combined supernatants were evaporated to 20 μl and the sample was reconstituted in 100 μl methanol (HPLC-grade, Fisher Chemical, Loughborough, UK). […]

[7] = ref SciFinder; cited from earlier work
[8] = tested on: nine-spine stickleback (Pungitius pungitius); test: Study 2: uptake in muscle tissue of stickleback; details: for Start relative tissue concentration (Cb/Cw): 60 min after dosing
Description: as §5, §6, §8

zebrafish = tested on: zebrafish; design: method as in Levin et al. 2011; details: zebrafish exposed to 50 mg/L as embryos; ref Levin et al. 2011; cited from earlier work
rhesus macaque = details: oral administration, ref Gualtieri et al. 1982, Doerge et al. 2000; cited from earlier work
zebrafish (Danio rerio) = tested on: zebrafish (Danio rerio); design: method as in Endres et al. 2017; details: stressed zebrafish; environmentally relevant concentrations; ref Endres et al. 2017; cited from earlier work

SMILES: O=C1Nc2ccc(Cl)cc2C(c2ccccc2)=NC1O (stereo not drawn) [oxazepam]
- Bioconcentration in water louse compared to European perch (Perca fluviatilis) (water louse): higher levels

SMILES: OCCOCCN1CCN(C(c2ccccc2)c2ccc(Cl)cc2)CC1 (stereo not drawn) [hydroxyzine]
- Bioconcentration in water louse compared to European perch (Perca fluviatilis) (water louse): higher levels

SMILES: O=C(O)C(c1ccccc1)C1CCCCN1 (stereo not drawn) [ritalinic acid, α-phenyl-2-piperidine acetic acid]
- Formation time of ritalinic acid in water ([1]; 20 °C, static water only): 79 h
- Water concentration, measured end ([1]; 20 °C, static water only): 1606 ng/L
- Water concentration, measured start ([1]; 20 °C, static water only): 387 ng/L
- Time after which ritalinic acid concentration surpasses methylphenidate in water ([1]; water without biota, depending on temperature): 48 to 100 h
- Formation time of ritalinic acid in water ([2]; 10 °C): 62 h
- Water concentration, measured end ([2]; 10 °C): 202 ± 12 ng/L
- Water concentration, measured start ([2]; 10 °C): 11 ± 10 ng/L
- Formation time of ritalinic acid in water ([2]; 20 °C): 65 h
- Water concentration, measured end ([2]; 20 °C): 231 ± 12 ng/L
- Water concentration, measured start ([2]; 20 °C): 8 ± 2 ng/L
- Time after which ritalinic acid concentration surpasses methylphenidate in water ([2]; water with biota, depending on temperature): 48 to 100 h

SMILES: COC(=O)C(c1ccccc1)C1CCCCN1 (stereo not drawn) [methylphenidate]
- Effect on anxiety behaviours [3]: Reductions in anxiety behaviours
- Share of dose excreted as ritalinic acid (humans): up to 80%
- Time of peak in plasma (human): 1 to 4 h
- concentration at 60 min (in vivo [4]): 0.2 ng/g
- concentration at 13 days (in vivo [4]): 0.1 ng/g
- Start relative tissue concentration (Cb/Cw) ([5]; 10 °C): 0.6
- End relative tissue concentration (Cb/Cw) ([5]; 10 °C): 7.5 ± 3.2 (4.0–10.4)
- Start relative tissue concentration (Cb/Cw) ([5]; 20 °C): 1.1
- End relative tissue concentration (Cb/Cw) ([5]; 20 °C): 50.0
- Time of peak tissue concentration ([5]; depending on temperature): ~ 6 days and 5 to 7 days and 5–7 days
- concentration at 60 min (in vivo [6]): 0.18 ng/g
- pKa [7]: 9.5
- Water concentration, measured end ([1]; 20 °C, static water only): 7 ng/L
- Water concentration, measured start ([1]; 20 °C, static water only): 1660 ng/L
- half-life at 1870 ng/L ([1]; ground water in an aerated glass aquarium, no biota): 37 h
- Time that concentrations stay above ~ 180 ng/L in the water column ([1]; study not given): up to 2 days
- Time of highest tissue concentration (first sampling point) [8]: 60 min
- Time of highest tissue concentrations [8]: ≤ 4 h
- Start relative tissue concentration (Cb/Cw) ([8]; 10 °C): 1.2 ± 0.5 (0.7–2.1)
- Start relative tissue concentration (Cb/Cw) ([8]; 20 °C): 0.5 ± 0.1 (0.4–0.7)
- Effect on anxiety behaviours (zebrafish): Reductions in anxiety behaviours
- Water concentration, measured end ([2]; 10 °C): 28 ± 4 ng/L
- Water concentration, measured start ([2]; 10 °C): 192 ± 28 ng/L
- Water concentration, measured end ([2]; 20 °C): 2 ± 1 ng/L
- Water concentration, measured start ([2]; 20 °C): 205 ± 19 ng/L
- half-life at 187 ng/L ([2]; 10 °C): 122 h
- half-life at 187 ng/L ([2]; 20 °C): 47 h
- Time of peak in plasma (rhesus macaque): 1 to 4 h
- Effect on anxiety-like behaviours (e.g., freezing, hiding) (zebrafish (Danio rerio)): inhibited anxiety-like behaviours
